We go through 1 molecule from article PMC5007650, “Crystal structure of the two-subunit tRNA m^1A58 methyltransferase TRM6-TRM61 from Saccharomyces cerevisiae” (Scientific Reports, 2016).

The Kd is the concentration at which binding is half-saturated. Read a high Kd as weaker binding.

Assay in all cases: isothermal titration calorimetry, single-site fit
Assay type in all cases: binding
In general terms: ITC needs no label: the signal is the heat of the interaction.

Experiment [1] has as its target T1, TRM6-TRM61 holoenzyme (Saccharomyces cerevisiae, UniProt P46959).
T1 construct: gene GCD14; full-length TRM6 (478 residues) and TRM61 co-expressed from pETDuet-TRM6-TRM61 in bacteria; Ni-NTA and gel filtration; with tRNA (adenine(58)-N(1))-methyltransferase non-catalytic subunit TRM6

Experiment [2] addresses T2, TRM6-TRM61 holoenzyme (Saccharomyces cerevisiae, UniProt P46959, F124A).
T2 construct: gene GCD14; full-length TRM6 (478 residues) and TRM61 co-expressed from pETDuet-TRM6-TRM61 in bacteria; Ni-NTA and gel filtration; with tRNA (adenine(58)-N(1))-methyltransferase non-catalytic subunit TRM6
An excerpt:
(§1) isothermal titration calorimetry, single-site fit on TRM6-TRM61 holoenzyme

Experiment [3] deals with T3, TRM6-TRM61 holoenzyme (Saccharomyces cerevisiae, UniProt P46959, F140A).
T3 construct: gene GCD14; full-length TRM6 (478 residues) and TRM61 co-expressed from pETDuet-TRM6-TRM61 in bacteria; Ni-NTA and gel filtration; with tRNA (adenine(58)-N(1))-methyltransferase non-catalytic subunit TRM6
T3 sequence (P46959 whole entry F140A): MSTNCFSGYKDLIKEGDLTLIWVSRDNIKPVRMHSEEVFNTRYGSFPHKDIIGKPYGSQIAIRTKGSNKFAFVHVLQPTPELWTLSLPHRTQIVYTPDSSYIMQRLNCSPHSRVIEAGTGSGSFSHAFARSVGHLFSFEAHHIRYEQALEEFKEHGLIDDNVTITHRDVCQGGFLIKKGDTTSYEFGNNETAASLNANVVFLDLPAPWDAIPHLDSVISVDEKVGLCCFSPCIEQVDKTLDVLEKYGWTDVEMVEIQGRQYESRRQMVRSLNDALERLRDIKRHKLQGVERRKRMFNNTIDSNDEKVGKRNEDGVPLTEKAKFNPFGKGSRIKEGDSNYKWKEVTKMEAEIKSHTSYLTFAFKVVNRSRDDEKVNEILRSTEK
T3 sequence (P41814 whole entry partner): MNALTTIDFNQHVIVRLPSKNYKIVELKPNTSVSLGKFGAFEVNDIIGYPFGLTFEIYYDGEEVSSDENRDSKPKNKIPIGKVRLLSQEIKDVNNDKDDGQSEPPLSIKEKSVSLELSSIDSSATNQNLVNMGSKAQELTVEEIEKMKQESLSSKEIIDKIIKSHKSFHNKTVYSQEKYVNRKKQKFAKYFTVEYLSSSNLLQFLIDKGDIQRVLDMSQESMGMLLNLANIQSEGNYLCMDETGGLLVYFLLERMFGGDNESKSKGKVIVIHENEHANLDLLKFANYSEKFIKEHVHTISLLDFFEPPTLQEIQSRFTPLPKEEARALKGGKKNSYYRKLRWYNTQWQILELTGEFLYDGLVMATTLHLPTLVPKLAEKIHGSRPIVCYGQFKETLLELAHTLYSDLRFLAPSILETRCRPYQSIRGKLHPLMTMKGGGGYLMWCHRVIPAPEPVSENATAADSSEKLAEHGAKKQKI
Excerpt: as §1

The target of experiment [4] is T4, TRM6-TRM61 holoenzyme (Saccharomyces cerevisiae, UniProt P46959, V169A).
T4 construct: gene GCD14; full-length TRM6 (478 residues) and TRM61 co-expressed from pETDuet-TRM6-TRM61 in bacteria; Ni-NTA and gel filtration; with tRNA (adenine(58)-N(1))-methyltransferase non-catalytic subunit TRM6
T4 sequence (P46959 whole entry V169A): as the sequence (P46959 whole entry F140A) above, with A140F, V169A counted along it
T4 sequence (P41814 whole entry partner): as the sequence (P41814 whole entry partner) above
Excerpt: as §1

T1 sequence (P46959 whole entry): as the sequence (P46959 whole entry F140A) above, with A140F counted along it
T1 sequence (P41814 whole entry partner): as the sequence (P41814 whole entry partner) above
T2 sequence (P46959 whole entry F124A): as the sequence (P46959 whole entry F140A) above, with F124A, A140F counted along it
T2 sequence (P41814 whole entry partner): as the sequence (P41814 whole entry partner) above

Consider `C[S+](CC[C@H](N)C(=O)O)C[C@H]1O[C@@H](n2cnc3c(N)ncnc32)[C@H](O)[C@@H]1O` (stereo partly shown) [SAM], for which the Kd came out at 44.3 ± 4.55 µM at TRM6-TRM61 holoenzyme [1], 317 ± 34.7 µM on TRM6-TRM61 holoenzyme [2], 787 ± 64.5 µM at TRM6-TRM61 holoenzyme [3] and 409 ± 74.7 µM on TRM6-TRM61 holoenzyme [4].
